Source: PMC12471852, “Design and Synthesis of Marine-Inspired Itampolin A Derivatives to Overcome Chemoresistance in NSCLC via Cholesterol Homeostasis Modulation” (Marine Drugs, 2025)
Values joined by “and” are separate entries in the source; they are usually repeats but may differ in a detail not shown here. Identical values can stand only once. “Also recorded” adds a separate entry of the source.

Tests used:
[1] = tested on: PC9/GR nude mouse xenografts; assay: PC9/GR nude mouse xenograft tumor growth; assay type: in vivo, BALB/c nude mice
Text: For many years, the technique of implanting human tumor cell lines into nude mice models has been widely used to predict the anti-cancer effects of targeted anti-cancer drugs. In the nude mouse tumor implantation experiment, we continuously monitored the changes in the mouse body weight after administration. […] At the end of the experiment, after euthanizing the nude mice using the spinal dislocation method, we isolated the tumor tissues, weighed them, and conducted statistical analysis.
BALB/c nude mice (n = 12) were subcutaneously injected with PC9/GR cells (1 × 10^7 cells/mouse). When tumors reached 50 mm^3, mice received daily 4l or vehicle (3 weeks). Tumor volume (0.52 × length × width^2) and weight were recorded post-euthanasia.

[2] = tested on: p38 activation / C/EBPβ expression; assay: Western blot of p38, p-p38 and C/EBPβ; assay type: cell-based, human; settings: PC9/GR
Text: (§1) We obtained the gene promoter sequence of TM7SF2 from the NCBI database and utilized online databases JASPAR, UCSC, and hTFtarget to predict potential transcription factors for TM7SF2 (Table S2). […] Some studies indicate that p38 can induce C/EBPβ expression through the activation of p38 MAPK, JNK, or ERK in different experimental environments. We conducted Western blot experiments to detect changes in C/EBPβ expression and p38 protein activation and used ChIP and qPCR to determine whether C/EBPβ can target the TM7SF2 promoter region. […] Furthermore, the strength of this direct binding may be related to intracellular cholesterol levels.
(§2) Western blot: Proteins extracted with RIPA buffer were quantified (BCA), separated by SDS-PAGE, transferred to PVDF membranes, and probed with antibodies. Signals were detected by ECL.

PC9/GR cells [3] = assay: Scratch (wound) healing assay; assay type: cell-based, human; settings: for relative wound healing area: vehicle control 44.08%
Description: PC9/GR cells were grown to 90% confluence. A uniform wound was created in the monolayer using a sterile 200 µL pipette tip. The initial wound area was imaged immediately (0 h) using phase-contrast microscopy. After 24 h of incubation in complete medium, the wound area was re-imaged. The relative wound closure rate was calculated from the change in wound area using ImageJ software (version 1.53).

PC9/GR cells [4] = assay: Transwell migration assay; assay type: cell-based, human
Description: Cell migration was assessed using Transwell chambers (8.0 µm pore size; Corning, NY, USA). Cells suspended in serum-free medium were seeded into the upper chamber. The lower chamber contained 1 mL of DMEM supplemented with 10% FBS as a chemoattractant. Following 24 h of incubation, non-migrated cells on the upper membrane surface were removed. Migrated cells adherent to the lower membrane surface were fixed, stained with 0.1% crystal violet (Solarbio, China) for 15 min, and imaged. Migrated cells were quantified by counting five random fields per insert under a light microscope (Olympus, Tokyo, Japan).

p38α = p38α (Homo sapiens, UniProt Q16539); assay: ADP-Glo Kinase Assay, p38α MAP kinase inhibition; assay type: biochemical; settings: read-out: p38α MAP kinase inhibitory activity IC50
p38α, sequence (Q16539 whole entry): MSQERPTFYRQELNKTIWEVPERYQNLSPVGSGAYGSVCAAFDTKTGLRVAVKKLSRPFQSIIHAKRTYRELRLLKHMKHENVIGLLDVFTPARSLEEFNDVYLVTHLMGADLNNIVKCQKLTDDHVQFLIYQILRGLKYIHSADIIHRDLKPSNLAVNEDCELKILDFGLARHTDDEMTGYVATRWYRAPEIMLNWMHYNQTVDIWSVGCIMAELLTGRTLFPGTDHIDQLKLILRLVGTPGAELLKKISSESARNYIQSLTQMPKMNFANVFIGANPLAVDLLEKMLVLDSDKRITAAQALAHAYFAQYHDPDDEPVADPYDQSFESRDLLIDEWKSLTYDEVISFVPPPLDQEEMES
Description: The capacity of brominated tyrosine derivatives to inhibit p38α activity was evaluated using the ADP-Glo Kinase Assay.

[5] = tested on: C/EBPβ binding to the TM7SF2 promoter region; assay: ChIP-qPCR of C/EBPβ binding to the TM7SF2 promoter; assay type: cell-based, human; settings: Anti-C/EBPβ group of PC9/GR cells treated with 4l
Text: as §1
ChIP: 4l treated cells were crosslinked (1% formaldehyde, 20 min), lysed, and sonicated. Chromatin was immunoprecipitated with target antibodies, washed, and eluted. DNA was purified for qPCR.
qPCR: SYBR Green-based reactions (20 μL) included primers (0.4 μM each) and template DNA.

TM7SF2 = assay: Western blot / immunofluorescence of TM7SF2 protein in PC9/GR cells; assay type: cell-based, human; settings: 4l-treated vs untreated PC9/GR, immunoblotting
Text: By comparing PC9/GR treated with the small molecule compound 4l against untreated PC9/GR controls, we identified significant differentially expressed genes (DEGs). […] The results of the GO enrichment analysis further emphasized the significant impact of the small molecule compound 4l on steroid biosynthesis and metabolism in lung cancer cells, with the top five pathways being steroid biosynthesis, steroid metabolism, the metabolism of hydroxylated compounds, steroid biosynthesis, and cholesterol biosynthesis (Figure 4C). […] TM7SF2 has been identified as a critical regulator of cholesterol biosynthesis and steroid metabolism in lung cancer cells, a finding central to overcoming chemoresistance in NSCLC [28]. Thus, we selected TM7SF2 as the target gene for further experiments and investigated the protein expression of TM7SF2 in 4l-treated PC9/GR cells using immunoblotting.
as §2

BEAS-2B cells = assay: MTT cytotoxicity assay, normal bronchial epithelial BEAS-2B cells; assay type: cell-based, human
Description: The cytotoxicity of compound 4l on normal human bronchial epithelial cells (BEAS-2B) was also evaluated using the MTT assay. Cells treated with 0.1% DMSO served as the vehicle control.
The human normal lung epithelial cell line BEAS-2B, non-small cell lung carcinoma (NSCLC) cell line PC9, and gefitinib-resistant PC9/GR cell line were purchased from Procell Life Science & Technology Co., Ltd. (Wuhan, China). All cell lines were maintained in RPMI-1640 medium (BI, Beit Haemek, Mateh Asher, Israel) supplemented with 10% fetal bovine serum (FBS, Gibco, Thermo Fisher Scientific, Waltham, MA, USA) and 1% penicillin–streptomycin–amphotericin B sterile solution (Solarbio, Beijing, China). Cells were cultured at 37 °C in a humidified incubator with 5% CO2. For subculturing, cells were harvested using trypsin-EDTA solution upon reaching 70–80% confluence and resuspended at appropriate densities for subsequent experiments.
MTT: Cells (5 × 10^4/mL) were treated with 4l (25–100 μM, 24–48 h), incubated with MTT (10 μL/well, 4–6 h), and dissolved in DMSO. Absorbance (490 nm) was measured to assess viability.

[6] = fourth column = 75 μM by match with b18
[7] = second column = 25 μM by match with b18
[8] = third column = 50 μM by match with b18

Compound: O=C(NCCc1cc(Br)c(O)c(Br)c1)Nc1ccc(F)cc1 [4l, 1-(3,5-dibromo-4-hydroxyphenethyl)-3-(4-fluorophenyl)urea]
- tumor growth inhibition compared to gefitinib-treated group ([1]; 200 mg/kg of gefitinib and compound 4l): stronger inhibitory effect
- in vivo growth of PC9/GR xenografts (tumor volume) ([1]; 200 mg/kg, daily, 3 weeks, p < 0.05): effectively inhibited; also recorded: significant suppression; also recorded: significantly inhibited tumor growth
- excised tumor weight ([1]; end of experiment): consistent with the volume data
- C/EBPβ expression and p38 activation [2]: reduce C/EBPβ expression by inhibiting p38 activation
- relative wound healing area (PC9/GR cells [3]; 25 μM): 25.32%
- relative wound healing area (PC9/GR cells [3]; 50 μM): 27.45%
- relative wound healing area (PC9/GR cells [3]; 75 μM): 15.45%
- relative wound healing area, mean of replicates (PC9/GR cells [3]; [6]): 15.4595
- relative wound healing area, single replicate (PC9/GR cells [3]; [6]): 9.798 and 22.5542 and 10.9511 and 18.5341
- relative wound healing area, mean of replicates (PC9/GR cells [3]; [7]): 25.3251
- relative wound healing area, single replicate (PC9/GR cells [3]; [7]): 23.8842 and 10.9955 and 36.4639 and 29.9568
- relative wound healing area, mean of replicates (PC9/GR cells [3]; [8]): 27.4562
- relative wound healing area, single replicate (PC9/GR cells [3]; [8]): 33.9434 and 27.2189 and 28.6416 and 20.021
- PC9/GR cell motility (Transwell migration) (PC9/GR cells [4]; 25, 50 and 75 μM): significant suppression
- effect of TM7SF2 overexpression on 4l inhibition of migration, proliferation and invasion (PC9/GR cells [4]; TM7SF2-overexpressing PC9/GR cells): attenuated the inhibitory effects
- IC50 (p38α): 9.7 ± 1.4 nM
- C/EBPβ binding to TM7SF2 promoter (specific amplification bands) [5]: did not show specific amplification bands
- TM7SF2 protein expression level (TM7SF2): significantly reduced
- MTT, normal cells, value relative to control (=100), single replicate (BEAS-2B cells; 25 (μM), 24 h): 88.6 and 95.3 and 97.6 and 88.2
- MTT, normal cells, value relative to control (=100), single replicate (BEAS-2B cells; 25 (μM), 48 h): 90.6 and 83.5 and 89.7 and 76.4
- anti-proliferative effect on BEAS-2B cells (BEAS-2B cells; 25 to 100 μM, 24 h): no significant anti-proliferative effects
- MTT, normal cells, value relative to control (=100), single replicate (BEAS-2B cells; 50 (μM), 24 h): 80.6 and 83.5 and 79.7 and 76.4
- MTT, normal cells, value relative to control (=100), single replicate (BEAS-2B cells; 50 (μM), 48 h): 79.8 and 82.9 and 80.5 and 70.5
- MTT, normal cells, value relative to control (=100), single replicate (BEAS-2B cells; 75 (μM), 24 h): 79.4 and 80.4 and 76.3 and 78.9
- MTT, normal cells, value relative to control (=100), single replicate (BEAS-2B cells; 75 (μM), 48 h): 75.2 and 77.7 and 73.1 and 76.4
- MTT, normal cells, value relative to control (=100), single replicate (BEAS-2B cells; 100 (μM), 24 h): 80.2 and 71.5 and 74.6 and 73.5
- MTT, normal cells, value relative to control (=100), single replicate (BEAS-2B cells; 100 (μM), 48 h): 77.3 and 80.6 and 71 and 69.3
- cytotoxicity in normal lung cells (BEAS-2B cells; doses ≤ 100 μM): negligible cytotoxicity; also recorded: minimal cytotoxicity
- cellular proliferation efficiency of BEAS-2B cells (BEAS-2B cells; prolonged treatment, 48 h): remained comparable to untreated controls
